The data set in a line: Human HepG2 cell viability assay in 384 well format. Format: toxicity, cell-based. The settings on record: HepG2 cells, read-out: Inhibition. Also noted: dose 125 nL, time 70.5 hour; cytotoxicity at 70.5 h: concentration not given beside the values.

Each structure is given as a SMILES string.

As to `N[C@H]1CN(S(=O)(=O)c2cccnc2)C[C@@H]1C1CC1`, the cytotoxicity at 70.5 h was -4.49%.

As to `Cc1nc(C)c(C)c(NCCSCc2[nH]cnc2C)n1`, the cytotoxicity at 70.5 h was -5.17%.

As for `COc1ccc(CN2CCCn3cncc3C2)cc1Cn1cncn1`, the cytotoxicity at 70.5 h is -8.65%.

For the molecule `Cc1ccc(NC2(C(=O)NCCCN)CCCC2)cc1`, the cytotoxicity at 70.5 h was -8.06%.

For `OC1(CN2CCCC2)COCCN(c2ncnc3[nH]ccc23)C1` (centres undefined), the cytotoxicity at 70.5 h was -3.06%.

As for `CN(CC1CCCO1)c1nc(-c2cccnc2)nc2c1CCNCC2` (centres undefined), the cytotoxicity at 70.5 h was -10.6%.

For the molecule `CN(Cc1n[nH]c(=O)n1Cc1ccccc1F)S(C)(=O)=O`, the cytotoxicity at 70.5 h stood at 5.65%.

On to `COc1ccccc1Oc1ncccc1CNC(=O)C(C)N1CCCC1` (centres undefined), for which the cytotoxicity at 70.5 h was -1.98%.

As for `CC(=O)N1CCN(CC2CCOc3ccccc3C2)CC1` (centres undefined), the cytotoxicity at 70.5 h was -1.42%.

As for `CN(C)CCNC(=O)c1cnc2c(c1)nc(-c1ccccc1Cl)n2C`, the cytotoxicity at 70.5 h was -10.7%.

On to `O=C(O)C(c1ccc2c(c1)OCCO2)N1CCCCCC1` (centres undefined), for which the cytotoxicity at 70.5 h was -7.26%.

As for `CC(C(=O)N1CCCC1)N1CCC(c2nccn2CC2CCC2)CC1` (centres undefined), the cytotoxicity at 70.5 h was -4.27%.

Take `O=C(N[C@@H]1CCNC[C@H]1O)c1ccc(F)c(Cl)c1`: the cytotoxicity at 70.5 h was -7.9%.

Turning to `Cc1cc(C)nc(N2Cc3cnn(Cc4ccc(F)cc4)c3C2)n1`, the cytotoxicity at 70.5 h is 13.2%.

Take `Cc1noc(C)c1CN1C(=O)[C@H]2CC[C@@H]1CN(Cc1cccnc1N)C2`: the cytotoxicity at 70.5 h came out at 16.1%.

In the case of `Cn1c(CN2CCCC2)nnc1C1CCCN(C(=O)C2CCOCC2)C1` (centres undefined), the cytotoxicity at 70.5 h was -3.01%.

Take `CN(C)S(=O)(=O)N1CCN(C(=O)c2ccc3ccn(C)c3c2)CC1`: the cytotoxicity at 70.5 h is -7.35%.

Consider `CC(=O)N1CCCN(c2nccc(-c3cn(C)nc3C)n2)CC1`, for which the cytotoxicity at 70.5 h was -2.77%.

As to `O=C(c1ccc2c(c1)CCC2)N1C[C@@H](CN2CCOCC2)[C@@H](CO)C1`, the cytotoxicity at 70.5 h was -6.01%.

With `O=C(CCc1ccc(O)cc1)N1CCC(Cc2ccc(CO)cc2)C1` (centres undefined), the cytotoxicity at 70.5 h is -9.62%.

For the molecule `CSCC(=O)N1CCCN(c2ccccc2C)CC1`, the cytotoxicity at 70.5 h is -4.65%.

Take `CNc1nc(C(=O)N2CCCC(c3nccn3CC3CCC3)C2)cs1` (centres undefined): the cytotoxicity at 70.5 h worked out at 8.97%.

For `CCN(CCn1cccn1)Cc1nc(-c2cccs2)oc1C`, the cytotoxicity at 70.5 h is -9.82%.

Regarding `Cc1cnn(CCC(=O)N2C[C@H]3CC[C@@H]2CN(CC(=O)N(C)C)C3)c1`, the cytotoxicity at 70.5 h was -3.83%.

On to `FC(F)(F)c1nc(NC2CCCC2)c2ccccc2n1`, for which the cytotoxicity at 70.5 h is -12.8%.

With `CCCNCC1(O)CCCN(Cc2cccc(C)c2)C1=O` (centres undefined), the cytotoxicity at 70.5 h is -3.03%.

`COc1cccc2c1OCC(C(=O)NC1CCN(S(C)(=O)=O)CC1)C2` (centres undefined): the cytotoxicity at 70.5 h turned out to be 14%.

Take `Cc1nc(Cn2nc(C3CCNCC3)n(Cc3ccccc3)c2=O)no1`: the cytotoxicity at 70.5 h is 6.65%.

For the molecule `Cc1cc(F)ccc1CN1CCC(O)(CN2CCCCC2)C1` (centres undefined), the cytotoxicity at 70.5 h is -1.38%.

Regarding `CC(C)N1CCCC2(CCN(C(=O)CCCn3cncn3)C2)C1=O` (centres undefined), the cytotoxicity at 70.5 h was -4.98%.

As to `Cc1nc(C)c(CC(=O)N2C[C@H]3CC[C@@H]2CN(C(=O)N(C)C)C3)c(=O)[nH]1`, the cytotoxicity at 70.5 h was found to be 15.9%.

As to `COCc1noc(-c2ccc(N(C)Cc3cc(C)no3)nc2)n1`, the cytotoxicity at 70.5 h was -6.05%.

For the molecule `O=C(c1ccccn1)N1C[C@@H]2CC[C@H](C1)N(C(=O)CCc1ccsc1)C2`, the cytotoxicity at 70.5 h is -10.8%.

For the molecule `CCCN1CCCn2nc(CNS(=O)(=O)c3ccc(C)cc3)cc2C1`, the cytotoxicity at 70.5 h is -6.85%.

Turning to `CC(C)CN1CCc2[nH]cnc2C12CCN(C(=O)c1cccnc1)CC2`, the cytotoxicity at 70.5 h stood at 12.4%.

For the molecule `Cn1cc(CNc2ncnc3c2CCN(Cc2ccsc2)CC3)cn1`, the cytotoxicity at 70.5 h is 0.199%.

For `NC(=O)CN1CCC(C(=O)N2CCCC(OCc3cccnc3)C2)CC1` (centres undefined), the cytotoxicity at 70.5 h is -11%.

As to `CC(C)SCC(=O)N1CCc2c(nc(N(C)C)nc2N(C)C)C1`, the cytotoxicity at 70.5 h was -9.5%.

`COc1ccccc1OCc1cc(C(=O)N2CCN[C@H](C)C2)n[nH]1`: the cytotoxicity at 70.5 h is -5.99%.

Take `Cc1nn2c(N3CCC(O)CC3)cc(-c3ccccc3)nc2c1C`: the cytotoxicity at 70.5 h was -3.29%.

For `CCn1c(N)nc2cc(C(=O)NCc3ccccc3Cl)cnc21`, the cytotoxicity at 70.5 h came out at 0.502%.

For the molecule `CCOCCn1c(=O)[nH]c2cc(C(=O)N(C)Cc3nc(C)cs3)ccc21`, the cytotoxicity at 70.5 h was -12.4%.

As to `CCc1cnc(N)nc1NCCN1CCCCC1`, the cytotoxicity at 70.5 h is 23%.

Turning to `O=C(c1ccc(C2CCCO2)s1)N1CCN(c2ccccc2F)CC1` (centres undefined), the cytotoxicity at 70.5 h was -4.35%.

Regarding `CC(C)c1cc(N2CCC(N)CC2)n2nccc2n1`, the cytotoxicity at 70.5 h was -4%.

Take `O=C(CO)N1C[C@H]2CC[C@@H]1CN(C1Cc3ccccc3C1)C2`: the cytotoxicity at 70.5 h is -8.88%.

For the molecule `Cc1ncc(C)c(N2CCCC(CO)(Cc3cccc(Cl)c3)C2)n1` (centres undefined), the cytotoxicity at 70.5 h turned out to be 1.75%.

As to `CNC(=O)c1ccc(OC2CCN(S(C)(=O)=O)CC2)c(Cl)c1`, the cytotoxicity at 70.5 h was determined as 3.83%.

For `CCn1ncnc1C(C)NC(=O)C1CCN(C(C)C)CC1` (centres undefined), the cytotoxicity at 70.5 h was -8.56%.

For `Cc1cc(C)c2nc(CN3CCOC(CCO)C3)cc(O)c2c1` (centres undefined), the cytotoxicity at 70.5 h is -4.44%.

`COc1ccc(C2CC(=O)Nc3c2nc2n3CCCC2)cc1O` (centres undefined): the cytotoxicity at 70.5 h was -15.2%.

Regarding `O=C(c1cccc(=O)[nH]1)N(Cc1ccsc1)CC1CCCO1` (centres undefined), the cytotoxicity at 70.5 h turned out to be 5.57%.

With `Cc1ccc(S(=O)(=O)NC2CC2)cc1C`, the cytotoxicity at 70.5 h is -5.86%.

Consider `O=C(c1ccncc1)N1C[C@@H]2CC[C@H](C1)N(C(=O)N1CCOCC1)C2`, for which the cytotoxicity at 70.5 h is -7.89%.

Take `CCCc1cc(CNC(=O)C2CCOc3ccccc3C2)on1` (centres undefined): the cytotoxicity at 70.5 h was 2.98%.

Take `Cc1nnc(CCNC2CCN(c3ncnc4c(C)csc34)CC2)s1`: the cytotoxicity at 70.5 h was -2.85%.

With `CC(C)NC(=O)c1nnn(-c2cccc(C(F)(F)F)c2)c1N`, the cytotoxicity at 70.5 h was -4.84%.

Consider `COC(=O)c1cc(OCC2CCC2)cc(C(=O)N[C@@H]2CNCC[C@H]2O)c1`, for which the cytotoxicity at 70.5 h came out at 19.4%.

For the molecule `COCCN(C)C[C@@H]1CN(C(=O)c2cccc(C(F)(F)F)c2)C[C@@H]1CO`, the cytotoxicity at 70.5 h is -9.39%.

For the molecule `Cc1c[nH]c(CN(C)C(=O)C2CC(=O)N(Cc3ccncc3)C2)n1` (centres undefined), the cytotoxicity at 70.5 h is 11.9%.

With `Cc1cc(C)n(-c2cc(N3CCN(C(=O)C(C)(C)C)CC3)nc(C)n2)n1`, the cytotoxicity at 70.5 h was found to be 2.21%.

With `CN(c1ccc(C(=O)NCCCN2CCOCC2)c(Cl)c1)S(C)(=O)=O`, the cytotoxicity at 70.5 h was -8.19%.

Turning to `CCN(c1ccc(C(=O)N2CCCC(C)C2)cc1)S(=O)(=O)CC` (centres undefined), the cytotoxicity at 70.5 h is -4.35%.

For `CCC(C(=O)NCc1ccncc1)N(c1cccc(C)c1)S(C)(=O)=O` (centres undefined), the cytotoxicity at 70.5 h was -9.28%.

With `Cc1cccc(C(=O)Nc2ccc(OC3CCN(C)CC3)cc2)c1`, the cytotoxicity at 70.5 h worked out at 19.2%.

Turning to `COCCCC1CCCN(C(=O)CCc2cc(O)no2)C1` (centres undefined), the cytotoxicity at 70.5 h was -1.74%.

Take `CN1CCC(CCNC(=O)c2ccc(N(C)S(C)(=O)=O)cc2Cl)CC1`: the cytotoxicity at 70.5 h was -7.69%.

For `Cc1nc(C2CCCN(C(=O)CO)C2)cc(N2CCOCC2)n1` (centres undefined), the cytotoxicity at 70.5 h was -4.97%.

In the case of `N#Cc1ccccc1CN1C[C@@H]2CC[C@H](C1)N(CC1CC1)C2=O`, the cytotoxicity at 70.5 h was -7.57%.
